Assay results: PubChem BioAssay (NCI)
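These data come from cells grown in 96-well plates and exposed to compound for 48 hours at five concentrations. GI50 marks 50% less growth. TGI marks complete inhibition of growth.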

Tests used:
Test in all cases: DTP human tumour cell line panel, 48 h
HL-60(TB) leukemia = test system: HL-60(TB) leukemia
MDA-MB-435 = test system: MDA-MB-435
IGROV1 ovarian = test system: IGROV1 ovarian
A498 renal = test system: A498 renal
A549 NSCLC = test system: A549 NSCLC
COLO 205 colon = test system: COLO 205 colon
UACC-62 melanoma = test system: UACC-62 melanoma
RPMI-8226 leukemia = test system: RPMI-8226 leukemia

Row | SMILES | GI50 (HL-60(TB) leukemia) | TGI (HL-60(TB) leukemia) | GI50 (MDA-MB-435) | TGI (MDA-MB-435) | GI50 (IGROV1 ovarian) | TGI (IGROV1 ovarian) | GI50 (A498 renal) | TGI (A498 renal) | GI50 (A549 NSCLC) | TGI (A549 NSCLC) | GI50 (COLO 205 colon) | TGI (COLO 205 colon) | GI50 (UACC-62 melanoma) | TGI (UACC-62 melanoma) | GI50 (RPMI-8226 leukemia) | TGI (RPMI-8226 leukemia)
1 | N=c1c2c(-c3ccccc3)c(-c3ccccc3)n(Cc3ccccc3)c2ncn1C1CCC(O)CC1 (stereo unspecified) | 1190 nM | 3.66 µM | 0.346 µM | 4.89 µM | 0.0902 µM | 4.49 µM | 345 nM | 14.4 µM | 103 nM | 12.9 µM | 0.417 µM | 2.23 µM | 534 nM | 7.06 µM | 318 nM | 4.12 µM
2 | COc1cc(N=Nc2ccc(O)c3ncccc23)c2ncccc2c1 | 2470 nM | 9.16 µM | 4.64 µM | > 100 µM | 3.67 µM | > 100 µM | 24200 nM | 93.5 µM | 8040 nM | > 100 µM | 5.65 µM | > 100 µM | 2400 nM | 7.68 µM | 2970 nM | > 100 µM
3 | COc1cc(N(CCC#N)CCC#N)ccc1/C(N=Nc1ccc(Cl)cc1)=N/NC(=O)c1cc(Br)ccc1O | 62.1 µg/mL | > 150 µg/mL | > 150 µg/mL | > 150 µg/mL | 54.5 µg/mL | > 150 µg/mL | > 150 µg/mL | > 150 µg/mL | 85.5 µg/mL | > 150 µg/mL | 41.7 µg/mL | 127 µg/mL | 112 µg/mL | > 150 µg/mL | 102 µg/mL | > 150 µg/mL
4 | COc1ccc(-c2ccc(=O)oc2C#Cc2cc(OC)c(OC)c(OC)c2)cc1O | 316 nM | > 100 µM |  |  |  |  | 2360 nM | 24.9 µM | 563 nM | 21.9 µM | 4.05 µM | > 40.4 µM | 350 nM | > 100 µM | 230 nM | 
5 | S=c1[nH]c(=S)c2cc3ccccc3nc2[nH]1 | 38000 nM | > 100 µM | 31.1 µM | > 100 µM | 23 µM | > 100 µM | > 100000 nM | > 100 µM | > 100000 nM | > 100 µM | 20.3 µM | > 100 µM | 69500 nM | > 100 µM | 7960 nM | > 100 µM
6 | CN(C)C1CCN(C(=O)c2ccc(NC(=O)Nc3ccc(-c4nc(N5CCOCC5)c5cccn5n4)cc3)cc2)CC1 | 105 nM | 1.76 µM | 0.0403 µM | 0.492 µM | 0.0302 µM | 0.211 µM |  |  | 64.9 nM | 12.6 µM | 0.0535 µM | 1.42 µM | 44.4 nM | 0.287 µM | 275 nM | 1.88 µM
7 | CC1CC2CCCC(O)=C2C(=O)O1 (stereo unspecified) |  | > 100 µM |  | > 100 µM |  | > 100 µM |  | > 100 µM |  | > 100 µM |  | > 100 µM |  | > 100 µM |  | > 100 µM
8 | COc1ccc2nc3ccccc3c(NCc3ccc(F)cc3)c2c1 | 1170 nM | 2.8 µM | 2.14 µM | 8.26 µM | 1.8 µM | 6.65 µM | 1620 nM | 5.74 µM | 1990 nM | 9.89 µM | 1.11 µM | 2.78 µM | 3480 nM | 10.2 µM | 1240 nM | 3.06 µM
9 | NC(N)=N/N=C/c1c(Cl)cccc1Cl | 21800 nM | 50.9 µM | 15.3 µM | 31.1 µM | 31.2 µM | > 100 µM | 3980 nM | 36.9 µM | 27400 nM | > 100 µM | 17.2 µM | 32.1 µM | 18000 nM | 37.3 µM | 40700 nM | > 100 µM
10 | COC(=O)/C(=C/c1ccc(OC)cc1)C(C(=O)O)=C1CCCC1 |  | > 100 µM |  |  |  | > 100 µM |  | > 100 µM |  | > 100 µM |  | > 100 µM |  | > 100 µM |  | > 100 µM
11 | CCn1c(O)c(/C=N/NC(=O)C(C)c2ccc(CC(C)C)cc2)sc1=S (stereo unspecified) | 312 nM | 1.52 µM |  |  | 0.419 µM | > 36.9 µM | 243 nM | 0.87 µM | 472 nM | > 54.4 µM | 1.23 µM | 9.04 µM | 435 nM | 15 µM | 425 nM | 4.83 µM
12 | C=CCC1(c2ccc(OC)cc2)C=CC(=O)CC1 (stereo unspecified) |  | > 100 µM |  | > 100 µM |  | > 100 µM |  |  |  | > 100 µM |  | > 100 µM |  | > 100 µM |  | 
13 | CCOc1ccc(/C=C2\N=C(c3ccc([N+](=O)[O-])cc3)OC2=O)cc1 |  | > 100 µM |  | > 100 µM |  | > 100 µM |  | > 100 µM |  | > 100 µM |  | > 100 µM |  | > 100 µM |  | > 100 µM
14 | NC(N)=NCCCC(=O)O |  | > 100 µM |  | > 100 µM |  | > 100 µM |  | > 100 µM |  | > 100 µM |  | > 100 µM |  | > 100 µM |  | > 100 µM
15 | COc1ccc(-c2nnc3n(C)c(=O)c4ccccc4n23)cc1N |  |  | 0.0226 µM | 0.0799 µM | 14.7 µM | > 100 µM | 2840 nM | 54.5 µM | 1470 nM | > 100 µM | 0.0469 µM | 4.44 µM |  |  | 3880 nM | > 100 µM
16 | COC(=O)c1ccc2c(c1)C(=O)c1c-2n(CCCN=[N+]=[N-])c(=O)c2cc(OC)c(OC)cc12 | 91900 nM | > 100 µM | > 100 µM | > 100 µM | > 100 µM | > 100 µM |  |  | > 100000 nM | > 100 µM | > 100 µM | > 100 µM | > 100000 nM | > 100 µM | > 100000 nM | > 100 µM
17 | NC1CCN(Cc2ccccc2)CC1 | > 100000 nM | > 100 µM | > 100 µM | > 100 µM | 94.6 µM | > 100 µM |  |  | > 100000 nM | > 100 µM | > 100 µM | > 100 µM | > 100000 nM | > 100 µM | > 100000 nM | > 100 µM
18 | O=c1c(F)cn(Cc2ccc(C34CC5CC(CC(C5)C3)C4)c(O)c2)c(=O)n1Cc1ccc(C23CC4CC(CC(C4)C2)C3)c(O)c1 | 8320 nM | 54.2 µM | 14.4 µM | 29.2 µM |  |  | 14200 nM | 27.5 µM | 4200 nM | > 100 µM | 18 µM | 37.5 µM | 15900 nM | 29.5 µM | 15400 nM | 60.4 µM
